In patent US12708620B2, “Prodrugs and medical uses thereof” (priority 2018, dated 2026):

Columns and labels:
MiaPaca-2 = test: in vitro cell culture sensitivity in anoxic conditions; format: cell-based, human
[1] = tested on: MDA-MB-436 tumor xenograft; test: triple negative breast cancer xenograft model; format: in vivo, BALB/c Nude Mice; conditions: MDA-MB-436 xenograft, single treatment cycle; for Anti-tumor effect: 600 mg/kg IP, hypoxic status confirmed, methanesulfonate, 600 mg/kg
Description: All animal models were established as xenograft model in BALB/c Nude Mice (6-8 weeks old, 17-23 grams, maintained in standard conditions and diet), following approved IACUC (Institutional Animal Care and Use Committees) protocols. Cpd.11 Ms was formulated using 2% dimethyl sulfoxide (DMSO in water for injection, starting from a Cpd.11 Ms main preparation (100-60 mg/ml in 2% DMSO in water for injection).
After tumor cell inoculation, the animals were checked daily for morbidity and mortality. Before commencement of treatment all animals were weighed and the tumor volumes were measured using a caliper. The treatments were started when the mean tumor size reached approx. 250 mm^3. Each treated/control group contained 10 mice that were randomly assigned and injected daily for 5 days. The date of tumor cell inoculation was denoted as day 0 (thus injections were performed at day 1, 2, 3, 4, and 5). At the time of routine monitoring, the animals were checked for any effects of tumor growth and treatments on normal behavior such as mobility, visual estimation of food and water consumption, body weight gain/loss (body weights were measured daily during the 5-day treatment and thrice weekly after treatment), eye/hair matting and any other abnormal effect. Death and observed clinical signs were recorded on the basis of the numbers of animals within each subset. Tumor volumes were measured daily during the 5-day treatment and thrice weekly after treatment in two dimensions using a caliper, and the volume was expressed in mm3 using the formula: V=0.5 a×b2 where a and b are the long and short diameters of the tumor, respectively. The entire procedures of dosing as well as tumor and body weight measurement were conducted in a Laminar Flow Cabinet. Individual mice were euthanized by cervical dislocation when the tumor size reached 1400-1600 mm3. The surrogate endpoint for survival was calculated and indicated as TVx4 (initial tumor volume times 4). Statistical analysis of difference in tumor volume among the groups was conducted at the end of experiment using Independent-Samples T Test. All data were analyzed in SPSS (Statistical Product and Service Solutions) version 18.0 (IBM, Armonk, NY, U.S.). P-values were rounded to three decimal places, with the exception that raw P-values less than 0.001 were stated as P<0.001. All tests were two-sided. P<0.05 was considered to be statistically significant.
For the MDA-MB-436 tumor (ATCC: HTB-130; Passage: P4) cells were maintained in vitro as a monolayer culture in L-15 medium supplemented with 10% heat inactivated fetal bovine serum at 37° C. in an atmosphere of 100% air. […] The cells growing in an exponential growth phase were harvested and counted for tumor inoculation. […]

SMILES: CCN1CCN(C(=O)c2cc(N(CCBr)CCOS(C)(=O)=O)c(S(C)(=O)=O)cc2[N+](=O)[O-])CC1.CS(=O)(=O)O [Cpd.11 Ms, 4-(5-((2-bromoethyl) (2-((methylsulfonyl)oxy)ethyl)amino)-4-(methylsulfonyl)-2-nitrobenzoyl)-1-ethylpiperazin-1-ium methanesulfonate]
- sensitivity in anoxic conditions in vitro (MiaPaca-2): highly Cpd.11 Ms-sensitive
- Anti-tumor effect ([1]; listed as Cpd.11Ms): Strong impact,
- Anti-tumor effect [1]: significant regression of the tumour
- effects on body weight ([1]; IP): absence of effects on body weight
- median surrogate survival index (TVx4) compared to vehicle treated animals ([1]; IP): more than double
